Patent US9932324B2, “Substituted benzimidazolium compounds useful in the treatment of respiratory diseases” (Boehringer Ingelheim International GmbH, priority 2015, dated 2018)
pIC50: −log10 of the molar value.

Target: T1, ENaC (Epithelial Sodium Channel) in mouse kidney M-1 cells (Mus musculus, UniProt Q61180+Q9WU38+Q9WU39)
T1 construct: Mouse kidney M-1 cells were cultivated in DMEM containing 5% FCS and 5 μM dexamethasone; endogenous in cells; host or cells: mouse kidney M-1 cells
T1 sequence (Q61180 1-699): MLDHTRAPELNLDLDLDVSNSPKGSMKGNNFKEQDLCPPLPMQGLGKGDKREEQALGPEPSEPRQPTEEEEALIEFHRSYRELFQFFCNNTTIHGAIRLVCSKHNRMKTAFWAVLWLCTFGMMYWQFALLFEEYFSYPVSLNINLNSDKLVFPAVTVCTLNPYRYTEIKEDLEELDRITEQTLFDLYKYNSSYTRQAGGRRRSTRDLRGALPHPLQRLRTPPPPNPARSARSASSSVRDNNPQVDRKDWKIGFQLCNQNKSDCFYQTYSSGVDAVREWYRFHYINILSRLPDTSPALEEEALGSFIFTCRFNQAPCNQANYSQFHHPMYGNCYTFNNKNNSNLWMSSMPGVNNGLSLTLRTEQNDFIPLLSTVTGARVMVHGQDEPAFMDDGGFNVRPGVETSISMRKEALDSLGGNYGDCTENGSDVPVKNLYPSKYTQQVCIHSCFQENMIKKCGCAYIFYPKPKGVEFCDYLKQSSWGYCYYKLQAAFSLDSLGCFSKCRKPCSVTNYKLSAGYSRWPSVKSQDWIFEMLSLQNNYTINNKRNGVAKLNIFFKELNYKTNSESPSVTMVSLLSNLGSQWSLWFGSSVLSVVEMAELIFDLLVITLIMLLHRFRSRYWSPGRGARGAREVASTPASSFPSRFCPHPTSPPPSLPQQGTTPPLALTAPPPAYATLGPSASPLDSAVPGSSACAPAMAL
T1 sequence (Q9WU38 1-638): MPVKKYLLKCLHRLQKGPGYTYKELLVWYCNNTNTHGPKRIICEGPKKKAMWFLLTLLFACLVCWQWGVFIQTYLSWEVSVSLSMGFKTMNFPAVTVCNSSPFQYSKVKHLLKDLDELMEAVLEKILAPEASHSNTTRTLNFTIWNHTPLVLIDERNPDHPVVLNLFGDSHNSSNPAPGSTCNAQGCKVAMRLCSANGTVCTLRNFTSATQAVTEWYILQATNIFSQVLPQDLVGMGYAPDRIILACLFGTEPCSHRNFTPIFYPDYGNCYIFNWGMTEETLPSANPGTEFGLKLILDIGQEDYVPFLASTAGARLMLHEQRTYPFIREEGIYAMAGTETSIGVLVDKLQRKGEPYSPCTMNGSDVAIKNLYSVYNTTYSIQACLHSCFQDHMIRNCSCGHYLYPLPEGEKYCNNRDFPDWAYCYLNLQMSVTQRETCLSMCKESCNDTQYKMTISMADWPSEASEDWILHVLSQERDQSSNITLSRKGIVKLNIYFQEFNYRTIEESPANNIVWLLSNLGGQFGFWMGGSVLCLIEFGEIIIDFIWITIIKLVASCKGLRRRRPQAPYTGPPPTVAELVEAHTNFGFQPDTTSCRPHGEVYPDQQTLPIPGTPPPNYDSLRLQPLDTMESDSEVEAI
T1 sequence (Q9WU39 1-655): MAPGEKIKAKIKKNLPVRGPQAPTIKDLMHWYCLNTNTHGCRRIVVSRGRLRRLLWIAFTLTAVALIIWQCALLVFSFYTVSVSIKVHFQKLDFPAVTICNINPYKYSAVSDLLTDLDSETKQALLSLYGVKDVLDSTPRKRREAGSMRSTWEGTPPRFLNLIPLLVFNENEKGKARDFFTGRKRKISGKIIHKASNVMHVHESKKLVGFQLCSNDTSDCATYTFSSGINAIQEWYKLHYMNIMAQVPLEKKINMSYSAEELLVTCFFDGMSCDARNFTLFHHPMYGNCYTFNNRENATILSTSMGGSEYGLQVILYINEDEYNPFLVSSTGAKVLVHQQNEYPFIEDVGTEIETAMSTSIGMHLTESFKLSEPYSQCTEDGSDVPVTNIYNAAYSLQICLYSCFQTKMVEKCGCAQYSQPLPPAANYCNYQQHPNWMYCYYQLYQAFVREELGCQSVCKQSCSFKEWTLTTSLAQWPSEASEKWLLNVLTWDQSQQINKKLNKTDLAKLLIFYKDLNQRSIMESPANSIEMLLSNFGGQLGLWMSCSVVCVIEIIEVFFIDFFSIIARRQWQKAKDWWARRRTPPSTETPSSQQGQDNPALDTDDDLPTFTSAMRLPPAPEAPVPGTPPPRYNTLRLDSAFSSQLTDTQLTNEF
Experiment: Ussing Chamber assay (short circuit current, amiloride sensitive I_SC)
Type: cell-based
Conditions: apical administration, 37° C.
Protocol: The IC50 values of the example compounds given above were determined in the Ussing Chamber assay.
Ussing Chamber: Mouse kidney M-1 cells were cultivated in DMEM containing 5% FCS and 5 μM dexamethasone for 10 to 12 days on polyester transwell filters. Filters were inserted into a teflon-coated well-plate which fit into the ussing chamber system. Prior to measurement the medium of M-1 cells was replaced with Caco-2 transport buffer (Invitrogen, Germany). During measurements, the Ussing chamber temperature was kept at 37° C. Short circuit currents (I_sc) were measured in the voltage-clamp mode with the software package Lab View for data acquisition and analysis. The transepithelial electrical resistance (TEER) was determined by the application of voltage steps of ±5 mV every 5 sec. Compounds were administered at a final concentration of 3 μM or at increasing concentrations (1-3-10 μM) to the apical solution. At the end of each experiment the amiloride sensitive I_SC was measured by adding 3 μM amiloride to the apical compartment. Results are expressed as inhibition in percent of the amiloride effect or as IC50.

SMILES | pIC50
CC[n+]1c(CNC(=O)c2nc(Cl)c(N)nc2N)n(CCOCCO)c2cccc(OCC(=O)NC3CCNCC3)c21 [Example 7.01] | 7.96
CC[n+]1c(CNC(=O)c2nc(Cl)c(N)nc2N)n(C[C@@H]2CCCO2)c2cccc(OCC(=O)N3C[C@H](O)[C@@H](O)C3)c21 [Example 1.01] | 7.44
CCn1c(CNC(=O)c2nc(Cl)c(N)nc2N)[n+](CC)c2c(C(=O)NC3CCNCC3)cccc21.[Cl-] [Example 4.03] | 8.30
CCn1c(CNC(=O)c2nc(Cl)c(N)nc2N)[n+](CC)c2c(C(=O)NCCCNC(=O)OC(C)(C)C)cccc21 [Example 3.03] | 8.30
CCn1c(CNC(=O)c2nc(Cl)c(N)nc2N)[n+](CC)c2c(C(=O)NCCCN)cccc21.Cl.[Cl-] [Example 6.01] | 8.30
CCn1c(CNC(=O)c2nc(Cl)c(N)nc2N)[n+](CC)c2c(C(=O)NCCN(C)C)cccc21.[Cl-] [Example 3.05] | 8.22
CC[n+]1c(CNC(=O)c2nc(Cl)c(N)nc2N)n(C[C@@H]2CCCO2)c2cccc(OCC(=O)NC3CCNCC3)c21.O=C(O)C(F)(F)F.O=C([O-])C(F)(F)F [Example 4.01] | 9.00

The remaining molecules from weak to strong by pIC50, led by results:

pIC50 | SMILES
7.51 | CC[n+]1c(CNC(=O)c2nc(Cl)c(N)nc2N)n(C[C@@H]2CCCO2)c2cccc(OCC(=O)N(C)Cc3nc(C)ccc3[O-])c21 [Example 1.03]
7.62 | CC[n+]1c(CNC(=O)c2nc(Br)c(N)nc2N)n(C[C@@H]2CCCO2)c2cccc(OCC(=O)N3C[C@H](O)[C@@H](O)C3)c21.O=C([O-])C(F)(F)F [Example 2.01]
7.80 | CC[n+]1c(CNC(=O)c2nc(Cl)c(N)nc2N)n(CCOCCO)c2cccc(OC(CO)CO)c21 [Example 5.01]
8.52 | CCn1c(CNC(=O)c2nc(Cl)c(N)nc2N)[n+](CC)c2c(C(=O)N3CCN(C(=O)OC(C)(C)C)CC3)cccc21 [Example 3.04]
8.52 | CCn1c(CNC(=O)c2nc(Cl)c(N)nc2N)[n+](CC)c2c(C(=O)NC3CCN(C(=O)OC(C)(C)C)CC3)cccc21 [Example 3.02]
8.52 | CCn1c(CNC(=O)c2nc(Cl)c(N)nc2N)[n+](CC)c2c(C(=O)N3CCNCC3)cccc21.[Cl-] [Example 4.02]
8.70 | CC[n+]1c(CNC(=O)c2nc(Cl)c(C)nc2N)n(C[C@@H]2CCCO2)c2cccc(OCC(=O)NC3CCN(C(=O)OC(C)(C)C)CC3)c21 [Example 1.07]
8.70 | CCn1c(CNC(=O)c2nc(Cl)c(N)nc2N)[n+](CC)c2c(C(=O)N(C)Cc3nc(C)ccc3O)cccc21 [Example 3.01]

Tested on: not listed separately
Experiment: Permeability in CALU-3 cells
Type: in vitro ADME
Conditions: human; apical-to-basal, CALU-3 monolayers, pH 7.4, 37° C., 10 μM compound
Protocol: Permeability in CALU-3 Cells:
Permeability measurements across polarized, confluent CALU-3 cell monolayers grown on permeable filter supports are used to provide information on the potential of a compound to pass the lung epithelium. Apparent permeability coefficients (Papp) of the compounds across the CALU-3 cell monolayers are measured (pH 7.4, 37° C.) in apical-to-basal (AB) and basal-to-apical (BA) transport direction.
CALU-3 cells (1-2×10^5 cells/1 cm^2 area) are seeded on filter inserts (Costar transwell polycarbonate filters, 0.4 μm pore size) and cultured (for 10-12 days DMEM) until tight monolayers are formed. Compounds of interest are dissolved in appropriate solvent (DMSO, 10 mM stock solution). Stock solutions are diluted with HTP-4 buffer (128.13 mM NaCl, 5.36 mM KCl, 1 mM MgSO4, 1.8 mM CaCl2, 4.17 mM NaHCO3, 1.19 mM Na2HPO4 x 7H2O, 0.41 mM NaH2PO4xH2O, 15 mM HEPES, 20 mM glucose, 0.25% BSA, pH 7.4) to prepare the transport solutions (10 μM compound, final DMSO <=0.5%). The transport solution (TL) is applied to the apical or basolateral donor side for measuring A-B or B-A permeability (3 filter replicates), respectively. The receiver side contains the same buffer as the donor side. After 30 min of accommodation, samples are collected at the start t0=0 min and at the end of the experiment tn=90 min from the donor and at 0, 30, 60, and 90 min also from the receiver chamber. Volume removed is […] by HTP-4 buffer. The compound concentration in the samples is measured by HPLC-MS/MS or scintillation counting. The permeability coefficient (Papp) and efflux ratio are calculated according to: Papp [cm/s]=(concentration receiver [nM]*volume receiver [mL]/time interval [sec])*(1/filter area)*(1/donor concentration [nM]).

SMILES | Papp A→B at 90 min, 10 μM [×10⁻⁶ cm/s]
CCn1c(CNC(=O)c2nc(Cl)c(N)nc2N)[n+](CC)c2c(C(=O)NC3CCNCC3)cccc21.[Cl-] [Example 4.03] | 0.08
CCn1c(CNC(=O)c2nc(Cl)c(N)nc2N)[n+](CC)c2c(C(=O)NCCCN)cccc21.Cl.[Cl-] [Example 6.01] | 0.1
CCn1c(CNC(=O)c2nc(Cl)c(N)nc2N)[n+](CC)c2c(C(=O)NCCN(C)C)cccc21.[Cl-] [Example 3.05] | 0.04
CC[n+]1c(CNC(=O)c2nc(Cl)c(N)nc2N)n(C[C@@H]2CCCO2)c2cccc(OCC(=O)NC3CCNCC3)c21.O=C(O)C(F)(F)F.O=C([O-])C(F)(F)F [Example 4.01] | 0.3

The remaining lines, values ahead:

Papp A→B at 90 min, 10 μM [×10⁻⁶ cm/s] | SMILES
0.3 | CC[n+]1c(CNC(=O)c2nc(Cl)c(N)nc2N)n(C[C@@H]2CCCO2)c2cccc(OCC(=O)N(C)Cc3nc(C)ccc3[O-])c21 [Example 1.03]
0.2 | CC[n+]1c(CNC(=O)c2nc(Br)c(N)nc2N)n(C[C@@H]2CCCO2)c2cccc(OCC(=O)N3C[C@H](O)[C@@H](O)C3)c21.O=C([O-])C(F)(F)F [Example 2.01]
0.2 | CCn1c(CNC(=O)c2nc(Cl)c(N)nc2N)[n+](CC)c2c(C(=O)N3CCNCC3)cccc21.[Cl-] [Example 4.02]

Same assay, conditions: human; basal-to-apical, CALU-3 monolayers, pH 7.4, 37° C., 10 μM compound

SMILES | Papp B→A at 90 min, 10 μM [×10⁻⁶ cm/s]
CCn1c(CNC(=O)c2nc(Cl)c(N)nc2N)[n+](CC)c2c(C(=O)NC3CCNCC3)cccc21.[Cl-] [Example 4.03] | 0.1
CCn1c(CNC(=O)c2nc(Cl)c(N)nc2N)[n+](CC)c2c(C(=O)NCCCN)cccc21.Cl.[Cl-] [Example 6.01] | 0.09
CCn1c(CNC(=O)c2nc(Cl)c(N)nc2N)[n+](CC)c2c(C(=O)NCCN(C)C)cccc21.[Cl-] [Example 3.05] | 0.06
CC[n+]1c(CNC(=O)c2nc(Cl)c(N)nc2N)n(C[C@@H]2CCCO2)c2cccc(OCC(=O)NC3CCNCC3)c21.O=C(O)C(F)(F)F.O=C([O-])C(F)(F)F [Example 4.01] | 0.3

More lines, now with the values ahead:

Papp B→A at 90 min, 10 μM [×10⁻⁶ cm/s] | SMILES
0.5 | CC[n+]1c(CNC(=O)c2nc(Cl)c(N)nc2N)n(C[C@@H]2CCCO2)c2cccc(OCC(=O)N(C)Cc3nc(C)ccc3[O-])c21 [Example 1.03]
0.2 | CC[n+]1c(CNC(=O)c2nc(Br)c(N)nc2N)n(C[C@@H]2CCCO2)c2cccc(OCC(=O)N3C[C@H](O)[C@@H](O)C3)c21.O=C([O-])C(F)(F)F [Example 2.01]
0.1 | CCn1c(CNC(=O)c2nc(Cl)c(N)nc2N)[n+](CC)c2c(C(=O)N3CCNCC3)cccc21.[Cl-] [Example 4.02]
